Where two headings read alike, the source gives them in different places.
Key:
[1] = type: physicochemical; conditions: 250 μg/l
Text: (§1) A semi-industrial pilot device in accordance with one aspect of the invention comprises a tank for recirculating water to be treated of a volume of 1000 l, a circulation pump ensuring a circulation flow of the water to be treated in a sanitising device with a flow rate between 4 m^3 to 8 m^3/h. The sanitising device comprises a photolysis chamber comprising an inlet for water from the recirculation tank and an outlet for sanitised water directed to the recirculation tank. The photolysis chamber is formed of a rigid tubular envelope, of which the external wall is opaque to light and forming an inner space suitable for receiving five fluorescent tubes with a longitudinal axis extending in parallel with the longitudinal axis of the rigid tubular envelope. The inner volume of the decontamination reactor is in the order of […].
The five fluorescent tubes are tubes of 200 W emitting light at a wavelength of 254 nm and arranged longitudinally in the tubular envelope at the five points of a regular pentagon and in contact with the water to be treated flowing in the photolysis chamber. In this configuration of the sanitising device, the water to be sanitised flowing in contact with the five fluorescent tubes is subjected to substantially homogeneous illumination in the order of 500 mJ/cm^2 for a circulation flow rate of water to be sanitised in the order of 6 m^3/h. The semi-industrial pilot device also comprises a tank for storing an aqueous solution of hydrogen peroxide (H2O2) provided with a pump for distributing said solution in the circulation flow of water to be sanitised issuing into the circuit of water to be sanitised upstream of and in proximity to the photolysis chamber. The concentration of the hydrogen peroxide in the aqueous solution of hydrogen peroxide is between 2 m g/l and 13 mg/l. The set-point flow rate of the pump for distributing solution of H2O2 is kept at 4 l/h.
The flow rate of the recycling pump is 6 m^3/h and the initial boscalid concentration in the recirculation tank is 250 μg/l. The 5 lamps of the sanitising device are switched on. […]

[2] = Example 6: pilot device, degradation of different amounts of boscalid (FIG. 7); type: physicochemical; conditions: boscalid 25, 80 and 200 μg/l; hydrogen peroxide 2 mg/l continuously added; 6 m^3/h
Text: as §1
The five fluorescent tubes are tubes of 200 W emitting light at a wavelength of 254 nm and arranged longitudinally in the tubular envelope at the five points of a regular pentagon and in contact with the water to be treated flowing in the photolysis chamber. In this configuration of the sanitising device, the water to be sanitised flowing in contact with the five fluorescent tubes is subjected to substantially homogeneous illumination in the order of 500 mJ/cm^2 for a circulation flow rate of water to be sanitised in the order of 6 m^3/h. […]

[3] = type: physicochemical; conditions: 10 min, 25 μg/l
Text: The semi-industrial pilot device comprises a tank for composition to be treated of a volume of 1000 l, a circulation pump ensuring a flow of composition to be treated in a sanitising device with a flow rate of 6 m^3/h. The sanitising device comprises a single photolysis chamber comprising an inlet for water from the tank of composition to be treated and an outlet for sanitised water directed to the tank of composition to be treated. The composition to be treated comprises boscalid at an initial concentration of 25 μg/l and an initial hydrogen peroxide concentration of 2 mg/l.
The photolysis chamber is formed of a rigid tubular envelope, of which the external wall is opaque to light and forming an inner space suitable for receiving five fluorescent tubes with a longitudinal axis extending in parallel with the longitudinal axis of the rigid tubular envelope. The inner volume of the decontamination reactor is in the order of 32 l. The five fluorescent tubes are tubes of 200 W emitting light at a wavelength of 254 nm and arranged longitudinally in the tubular envelope at the five points of a regular pentagon and in contact with the water to be treated flowing in the photolysis chamber.
After 10 minutes of operation of the semi-industrial pilot device, almost all of the composition to be treated has been illuminated in the photolysis chamber. […]

[4] = type: physicochemical; conditions: 19 seconds
Text: A hydraulic conveyor of a plant for sorting and packaging apples containing a volume of 90 m^3 of water as composition for conveying Ariane, Rosy Glow and Pink Lady apples comprises a sanitising device in accordance with the invention formed of six photolysis chambers mounted in series, each chamber comprising five fluorescent tubes having an individual power of 200 W. The flow rate of the composition for conveying apples in the sanitising device is 36 m^3/h. It has been observed that the plurality of photolysis chambers mounted in series allows a rate of degradation of 96% of the initial boscalid to be achieved with a flow rate of the composition to be treated of 36 m^3/h and for an average residence time of the conveying composition in the sanitising device in the order of 19 seconds.

Compound: O=C(Nc1ccccc1-c1ccc(Cl)cc1)c1cccnc1Cl [boscalid]
- final rate of degradation [1]: 95%
- initial degradation [1]: equivalent to that obtained with the addition of hydrogen peroxide at the concentration of 13 mg/l
- degradation of the initial boscalid ([1]; 1 h): 10%
- residual amount of boscalid [2]: less than 80%
- rate of degradation of the initial boscalid [3]: 58%
- rate of degradation of the initial boscalid [4]: 96%

— patent US10919785B2, “Hydraulic conveyor of floating objects provided with a device for sanitising conveying composition, plant provided with such a conveyor and sanitising method” (MAF AGROBOTIC, priority 2016, dated 2021)
